≈ marks a conversion by molar mass, not a printed value. Calls of active or inactive are those of the source. The rule behind the calls is not given here.
How the values were obtained:
[1] = Metabolic stability in human liver microsomes after 0.5 hrs; type: ADME, microsome; conditions: read-out: Stability
[2] = biological target: T1, Peroxisome proliferator-activated receptor alpha (Homo sapiens) (UniProt Q07869); assay: Agonist activity at recombinant human GAL4-DBD fused PPARalpha LBD expressed in COS7 cells at 10 uM after 24 hrs by luciferase reporter gene assay relative to 2-(4-tert-Butylphenoxy)-3-[4-[2-[(4-pyridin-2-ylbenzoyl)amino]ethoxy]; type: cell-based
T1 sequence (whole entry): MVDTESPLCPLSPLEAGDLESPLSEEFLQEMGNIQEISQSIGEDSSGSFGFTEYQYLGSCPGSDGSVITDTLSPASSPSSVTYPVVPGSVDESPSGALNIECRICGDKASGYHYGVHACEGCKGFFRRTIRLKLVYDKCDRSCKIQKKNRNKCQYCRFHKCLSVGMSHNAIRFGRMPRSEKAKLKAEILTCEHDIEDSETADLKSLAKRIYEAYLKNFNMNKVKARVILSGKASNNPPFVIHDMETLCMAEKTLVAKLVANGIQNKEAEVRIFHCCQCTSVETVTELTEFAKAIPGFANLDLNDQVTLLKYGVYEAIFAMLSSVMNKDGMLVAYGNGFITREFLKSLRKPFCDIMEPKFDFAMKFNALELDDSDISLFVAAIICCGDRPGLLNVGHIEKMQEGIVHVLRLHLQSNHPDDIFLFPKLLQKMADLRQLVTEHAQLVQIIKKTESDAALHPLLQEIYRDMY

[3] = tested on: Rattus norvegicus; assay: Toxicity in Zucker diabetic fatty rat assessed as body weight gain at 3 mg/kg, po administered once daily for 14 days relative to control; type: organism-based; conditions: in vivo, 336 h
[4] = Tmax in Zucker diabetic fatty rat at 3 mg/kg, po dosed once daily for 14 days and followed by additional administeration on day 15; type: ADME, organism-based; conditions: in vivo
[5] = Cmax in Zucker diabetic fatty rat at 3 mg/kg, po dosed once daily for 14 days and followed by additional administeration on day 15; type: ADME, organism-based; design: dose 3 mg/kg, route oral; conditions: in vivo
[6] = Plasma concentration in hyperglycemic KK/Ta mouse at 30 mg/kg/day, po administered through diet for 3 days measured on day 3 post last dose; type: ADME, organism-based
[7] = tested on: Rattus norvegicus; assay: Glucose-lowering effect in Zucker diabetic fatty rat assessed as reduction in plasma glucose level at 3 mg/kg, po administered once daily for 14 days measured on day 14 post last dose relative to control; type: functional; design: scale not given: the % may be the effect or the level left
[8] = tested on: Mus musculus; assay: Toxicity in hyperglycemic KK/Ta mouse assessed as body weight gain at 30 mg/kg/day, po administered through diet for 3 days relative to control; type: organism-based; conditions: in vivo, 72 h
[9] = biological target: T2, Peroxisome proliferator-activated receptor alpha (Homo sapiens, UniProt Q07869); assay: Agonist activity at recombinant human GAL4-DBD fused PPARalpha LBD expressed in COS7 cells after 24 hrs by luciferase reporter gene assay; type: cell-based
T2 sequence (Q07869 whole entry): T1 sequence (whole entry)

[10] = biological target: T3, Peroxisome proliferator-activated receptor gamma (Homo sapiens) (UniProt P37231); assay: Agonist activity at recombinant human GAL4-DBD fused PPARgamma LBD expressed in COS7 cells at 10 uM after 24 hrs by luciferase reporter gene assay relative to rosiglitazone; type: cell-based
T3 sequence (whole entry): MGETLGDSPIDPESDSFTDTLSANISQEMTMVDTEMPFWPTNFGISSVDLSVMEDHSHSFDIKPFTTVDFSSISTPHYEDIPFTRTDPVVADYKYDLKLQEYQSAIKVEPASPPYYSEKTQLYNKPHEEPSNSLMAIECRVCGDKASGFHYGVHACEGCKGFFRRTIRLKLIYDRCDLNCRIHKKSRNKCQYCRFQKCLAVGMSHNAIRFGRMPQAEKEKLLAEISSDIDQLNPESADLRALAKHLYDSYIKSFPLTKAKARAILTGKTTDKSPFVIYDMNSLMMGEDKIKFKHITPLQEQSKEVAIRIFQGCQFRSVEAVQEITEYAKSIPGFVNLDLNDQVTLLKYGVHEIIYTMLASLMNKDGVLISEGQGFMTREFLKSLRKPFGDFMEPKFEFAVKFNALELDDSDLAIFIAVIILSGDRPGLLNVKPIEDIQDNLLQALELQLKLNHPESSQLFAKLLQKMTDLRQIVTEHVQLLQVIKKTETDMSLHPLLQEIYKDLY

[11] = Aqueous thermodynamic solubility of the compound in pH 6.8 solution up to 4 hrs by HPLC-UV analysis; type: physicochemical; conditions: read-out: Therm_solubility
[12] = tested on: Mus musculus; assay: Glucose-lowering effect in hyperglycemic KK/Ta mouse assessed as reduction in plasma glucose level at 30 mg/kg/day, po administered through diet for 3 days relative to control; type: functional; design: scale not given: the % may be the effect or the level left
[13] = AUC (0 to 24 hrs) in Zucker diabetic fatty rat at 3 mg/kg, po dosed once daily for 14 days and followed by additional administeration on day 15; type: ADME, organism-based; design: dose 3 mg/kg, time < 24 hr, route oral; conditions: in vivo
[14] = Metabolic stability in rat liver microsomes after 0.5 hrs; type: ADME, microsome; conditions: read-out: Stability
[15] = 1-octanol/PBS distribution co-efficient, log D of the compound at […] at pH 7.4 after 30 mins by HPLC-MS/MS analysis; type: physicochemical
[16] = biological target: T4, Peroxisome proliferator-activated receptor gamma (Homo sapiens, UniProt P37231); assay: Agonist activity at recombinant human GAL4-DBD fused PPARgamma LBD expressed in COS7 cells after 24 hrs by luciferase reporter gene assay; type: cell-based
T4 sequence (P37231 whole entry): T3 sequence (whole entry)

[17] = Metabolic stability in cynomolgus monkey liver microsomes after 0.5 hrs; type: ADME, Macaca fascicularis, microsome; conditions: read-out: Stability
[18] = Half life in cynomolgus monkey at 3 mg/kg, po by LC-MS/MS analysis; type: ADME, organism-based, Macaca fascicularis; conditions: in vivo
[19] = Volume of distribution at steady state in cynomolgus monkey at 1 mg/kg, iv by LC-MS/MS analysis; type: ADME, organism-based, Macaca fascicularis; conditions: in vivo, read-out: Vdss
[20] = AUClast in cynomolgus monkey at 3 mg/kg, po by LC-MS/MS analysis; type: ADME, organism-based, Macaca fascicularis; design: dose 3 mg/kg, route oral, time 0 - last; conditions: in vivo
[21] = Clearance in cynomolgus monkey at 1 mg/kg, iv by LC-MS/MS analysis; type: ADME, organism-based, Macaca fascicularis; conditions: in vivo
[22] = Tmax in cynomolgus monkey at 3 mg/kg, po by LC-MS/MS analysis; type: ADME, organism-based, Macaca fascicularis; conditions: in vivo
[23] = Oral bioavailability in cynomolgus monkey at 3 mg/kg by LC-MS/MS analysis; type: ADME, organism-based, Macaca fascicularis; conditions: in vivo
[24] = Cmax in cynomolgus monkey at 3 mg/kg, po by LC-MS/MS analysis; type: ADME, organism-based, Macaca fascicularis; design: dose 3 mg/kg, route oral; conditions: in vivo
[25] = biological target: T5, Peroxisome proliferator-activated receptor delta (Homo sapiens) (UniProt Q03181); assay: Agonist activity at PPARdelta (unknown origin) at 10 uM
T5 sequence (whole entry): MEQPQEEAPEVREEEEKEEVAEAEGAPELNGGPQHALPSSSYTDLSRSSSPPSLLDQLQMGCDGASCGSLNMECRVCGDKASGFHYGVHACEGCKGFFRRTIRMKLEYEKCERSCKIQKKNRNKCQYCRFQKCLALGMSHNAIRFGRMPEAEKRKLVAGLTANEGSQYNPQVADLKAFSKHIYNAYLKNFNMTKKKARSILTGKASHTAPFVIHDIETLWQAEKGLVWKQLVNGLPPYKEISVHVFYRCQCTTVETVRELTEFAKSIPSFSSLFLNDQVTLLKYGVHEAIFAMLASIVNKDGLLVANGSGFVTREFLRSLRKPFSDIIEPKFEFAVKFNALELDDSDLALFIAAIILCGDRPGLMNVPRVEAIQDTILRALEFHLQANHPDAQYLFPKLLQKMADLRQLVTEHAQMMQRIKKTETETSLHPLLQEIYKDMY

Row | Compound | remaining at 0.5 h [1] [%] | Emax [2] [%] | Activity [3] [%] | Tmax [4] [h] | Cmax [5] [ng/mL] | concentration at 72 h [6] [ng/mL] | Activity [7] [%] | Activity [8] [%] | EC50 [9] [nM] | Emax [10] [%] | solubility thermodynamic at 4 h [11] [µg/mL] | Activity [12] [%] | AUC at 24 h [13] [ng·h/mL] | remaining at 0.5 h [14] [%] | logD at 0.5 h [15] | EC50 [16] [nM] | remaining at 0.5 h [17] [%] | half-life [18] [h] | Vd [19] [L/kg] | AUC(0-t) [20] [ng·h/mL] | other results
1 | Cc1cc(F)ccc1Oc1ccc2nc(COc3cccc(C(=O)O)c3)n(C)c2c1 | 59 | 19 | 11.9 | 4 | 42 | 190 | 22 | 2.8 | > 10000 | 66 | 1.7 (≈ 4.18 µM) | 54.7 | 420 | 47 | 2.5 | 22 |  |  |  |  | 
2 | Cc1ccc(Oc2ccc3nc(COc4cccc(C(=O)O)c4)n(C)c3c2)c(F)c1 | 92 | 16 | 8.5 | 2.4 | 300 | 550 | 61.7 | 2.5 | > 10000 | 90 | 0.5 (≈ 1.23 µM) | 53.4 | 3160 | 98 | 2.3 | 92 | 100 | 16.1 | 1.23 | 2870 | clearance [21]: 4.16 mL/min/kg; Tmax [22]: 1.5 h; bioavailability [23]: 24%; Cmax [24]: 330 ng/mL
3 | Cn1c(COc2cccc(C(=O)O)c2)nc2ccc(Oc3cc(F)ccc3F)cc21 | 98 | 36 | 9.5 | 2 | 520 | 700 | 61.2 | 3.3 | > 10000 | 79 | 5.7 (≈ 13.9 µM) | 51.2 | 3870 | 95 | 1.9 | 134 | 100 | 16.1 | 0.39 | 40900 | clearance [21]: 0.8 mL/min/kg; Tmax [22]: 1 h; bioavailability [23]: 65%; Cmax [24]: 5630 ng/mL
4 | Cc1ccc(Oc2ccc3nc(COc4cccc(C(=O)O)c4)n(C)c3c2)cc1F | 91 | 40 | 13.8 | 2 | 790 | 470 | 59.3 | 4.2 | > 10000 | 80 | 4.4 (≈ 10.8 µM) | 56.8 | 5530 | 100 | 2.7 | 4.4 | 91 | 13.8 | 0.32 | 8440 | clearance [21]: 1.8 mL/min/kg; Tmax [22]: 1.5 h; bioavailability [23]: 28%; Cmax [24]: 2060 ng/mL
5 | Cn1c(COc2cccc(C(=O)O)c2)nc2ccc(Oc3ccc4c(c3)OCC4)cc21 | 62 | 12 | 15.6 | 3.2 | 80 | 360 | 69.7 | 4.8 | > 10000 | 95 | 16 (≈ 38.4 µM) | 41.6 | 850 | 79 | 2 | 21 |  |  |  |  | 
6 | Cc1ccc(Oc2ccc3nc(COc4cccc(C(=O)O)c4)n(C)c3c2)cc1 | 91 | 28 | 13 | 2 | 1110 | 510 | 58.6 | 4.8 | > 10000 | 73 | 7.9 (≈ 20.3 µM) | 48.4 | 7100 | 100 | 2.4 | 40 | 100 | 10.4 | 0.56 | 4870 | Activity [25]: inactive; clearance [21]: 3.58 mL/min/kg; Tmax [22]: 1 h; bioavailability [23]: 34%; Cmax [24]: 1020 ng/mL

Source: ChEMBL document CHEMBL4152365, “Discovery of DS-6930, a potent selective PPARγ modulator. Part I: Lead identification” (Bioorg Med Chem, 2018)
